± gives the expanded uncertainty stated by the source.
Assay: refractive index (Na D-line) (dimensionless)
Conditions: 101.33 kPa, Liquid, Standard Abbe refractometry

Row | SMILES | refractive index (298.15 K) | refractive index (293.15 K)
1 | CCCCCCCCCC [decane] | 1.4091 ± 0.004 | –
2 | CCCCCCCCC [nonane] | – | 1.4056 ± 0.004
3 | CCCCCCCC [octane] | 1.398 ± 0.004 | –
4 | CCCO [propan-1-ol] | – | 1.3852 ± 0.004

From the NIST ThermoML archive (doi:10.1021/acs.jced.8b00554)
